In US11680218B2, “Biodegradable lubricant with tailored hydrolytic stability and improved thermal stability through alkoxylation of glycerol” (Tetramer Technologies, LLC, priority 2018, dated 2023):

Legend:
[1] = Differential scanning calorimetry (melt enthalpy, undercooling, percent solids index); assay type: physicochemical; details: DSC, heating from solid, 5° C./min
Source text: It is known in the art that alkoxylation has the potential to decrease the pour point of an ester. However, the current disclosure has observed a surprising decrease in the melting enthalpy and a marked reduction in the degree of undercooling. The degree of undercooling for a base oil indicates the increase in temperature required to fully melt an oil after crystallization has started. The degree of undercooling for the purpose of this disclosure is described as the difference between the temperature at which a material is fully melted on heating and the temperature at which the material begins to crystallize on cooling [Tmelt−Tonset=Undercool] as determined by differential scanning calorimetry (DSC) with a heating and cooling rate of 5° C./min. “Undercooling” and “degree of undercooling” can be used synonymously.
Oils with a lower undercooling require a smaller increase in temperature after crystallization to melt the oil and erase the oil “memory.” Shelby and Miller teach the concept of oil “memory” as a result of gels or crystals not fully dissociating even when above the melt point, so that on a second cooling cycle, gelation or crystal growth occurs much more quickly and at higher temperatures. If two oils have the same crystallization onset temperature, the oil with the lower undercooling will fully melt at a lower temperature and erase the oil “memory”. […] The effect of this is that glycerol esters and polyol esters must be heated substantially above the onset of crystallization in order to melt the oil before use. […] At 5° C. above the onset of crystallization temperature, 100% of Ex. 92 (glycerol ester) is solid; 31% of Ex 93 (PG3 ester) is solid; 18% of Ex. 94 (PG10 ester) is solid; and 81% of Ex 90 (TMP ester) is solid.
Examples 90, 92-94: Reductions in the enthalpy of melting are observed for propoxylated glycerol esters and TMP esters relative to the glycerol ester, see FIG. 19, Table 5, FIG. 20, Table 6 and FIG. 21, Table 7. […] DSC analysis was conducted within the temperature range −80° C. to 40° C. with cyclic cooling and heating rates of 5° C./min. The DSC melt thermograms for each material were integrated as a function of temperature and normalized to the overall melt enthalpy to generate a percent solids index that is the basis for the data in the Solids @ Onset+T columns. The data under Solids @ Onset+5 and +10° C. are indicative of the percent of solids in a base oil when heating from a fully solid or crystalline state. […] Both glycerol and TMP esters show higher degrees of undercooling and higher melt enthalpies compared to analogous propoxylated glycerol esters, see FIG. 20, Table 6.

[2] = literature value, cited from earlier work

| Structure (SMILES) | percent solid at 5° C. above the onset of crystallization temperature [1] [%] | percent solid at 10° C. above the crystallization onset temperature [1] | percent solid at 10° C. above the crystallization onset temperature ([1]; listed as Ex. 92) | Oxidative Onset Temperature (OOT) after formulation ([2]; formulated) | Oxidative Onset Temperature (OOT) ([2]; unformulated) [°C] | percent solid at 10° C. above the crystallization onset temperature ([1]; listed as Ex 90) [%] |
| --- | --- | --- | --- | --- | --- | --- |
| CCCCCCCCCCCC(=O)OCC(COC(=O)CCCCCCCCCCC)OC(=O)CCCCCCCCCCC [Example 92] | 100 | significant amounts of crystalline solids | not melted at all | – | – | – |
| CCCCCCCC/C=C\CCCCCCCC(=O)OCC(CC)(COC(=O)CCCCCCC/C=C\CCCCCCCC)COC(=O)CCCCCCC/C=C\CCCCCCCC [TMP trioleates] | – | – | – | up to 206 °C | 156 | – |
| CCCCCCCCCCCC(=O)OCC(CC)(COC(=O)CCCCCCCCCCC)COC(=O)CCCCCCCCCCC [Example 90] | 81 | significant amounts of crystalline solids | – | – | – | 46 |
